The values below come from patent US10047164B2, “Methods and compositions for the treatment of pancreatic cancer” (Opsona Therapeutics Ltd., priority 2012, dated 2018).

For experiment [1], the system named is pancreatic tumours in KPC mice. The following applies: Science 2009; cited from earlier work.
The test system of experiment [2] is advanced pancreatic cancer. The following applies: patients with advanced pancreatic cancer; cited from earlier work.
For experiment [3], the system named is KPC cell line orthotopic pancreatic tumours. The settings on record: treatment at the induction of tumours; over 49 days (FIG. 1); OPN-305 10 mg/kg i.v. once weekly, Gemcitabine 100 mg/kg i.p. twice weekly, Abraxane 10 mg/kg i.v. day 0.
From the text: A preclinical mouse model of pancreatic cancer was established where a KPC cell line derived from the genetically engineered ‘KPC’ mouse with pancreas-specific mutant Kras and mutant TP53 genetic background (LSL-KrasG12D; p53R172H, Pdx1-Cre) backcrossed several generations with C57Bl/6 mice was implanted as allograft, orthotopically in the pancreas of C57bl/6 (B6) mice. In brief, a subcutaneous tumour was first established by injecting 2.5 million cells under the skin of C57Bl/6 mice. Ten days later, the tumour was excised and chopped into smaller pieces, roughly 1 mm^3 in size, and implanted orthotopically into pancreas of C57Bl/6 mice. For orthotopic implantation into the pancreas, each mouse was anesthetized with 2.5% Avertin, 0.013 ml/g B.W. All surgical procedures were performed under aseptic conditions with use of sterile gloves and autoclaved instruments. The skin was disinfected with betadine followed by alcohol and this procedure was repeated twice. A left lateral oblique incision was made through the skin and then through the body wall just below the stomach. […] The growth of orthotopic tumours were measured over the period of 12-16 weeks by non-invasive ultrasound (Vevo2100, VisualSonic). […] The orthotopically implanted tumours were measured by ultrasound 5 days post-surgery and randomized into various treatment arms as below: • 1. […]

In the case of `Nc1ccn([C@@H]2O[C@H](CO)[C@@H](O)C2(F)F)c(=O)n1` [Gemcitabine], the “tumours demonstrating a change in growth kinetics after treatment” value in experiment [1] is reported as 12%. Moreover, the “improvement in median survival duration” value in experiment [2] was 5 week.

For the compound “OPN-305: humanized version of T2.5, a murine IgG1 anti-TLR2 antibody; described in WO2011/003925”, the tumour volume entry in experiment [3] is recorded as “reduced tumour volume to a greater extent than treatment with a combination of Gemcitabine+Abraxane”.
